Measurements as given in patent publication US20120093875A1, “AMINOCYCLITOL COMPOUNDS, PROCESS FOR OBTAINING THEM AND USES” (priority 2009, published 2012).

Experiments:
[1] = tested on: mouse iNKT cells; experiment: Mouse iNKT cells expansion in vitro in spleen cell cultures (flow cytometry, TCR/NK1.1); format: cell-based
Protocol: The compounds were assayed at a final concentration of 1 μg/mL in complete medium with 1% of methanol (MeOH), while the αGalCer (αGC) was used at 0.2 μg/mL. The cell cultures were labeled with anti-NK1-PE and anti-TCR-FITC specific antibodies. The percentages of NKT cells (double positive cells) were calculated within the population of electronically selected T cells.
First, the ability to induce the specific proliferation of mouse iNKT was determined by culture experiments in vitro. For that, spleen cells derived from female B57Bl/6 mice between 10 and 20 weeks were isolated and the red blood cells were removed by hypotonic lysis. The spleen cells are distributed in 96 U-well plates, between 100,000 and 500,000 cells per well, and incubated in the presence of each of the compounds 1a, 1b, 2b, 3a, 3b and 4b at a final concentration of 1 μg/mL in RPMI-1640 growth medium, 10% fetal serum, […], 1% methanol. […] The culture was analyzed at day 5 or 6 by flow cytometry, using TCR and NK1.1 specific antibodies. In the presence of the control αGalCer:
(§1) Mouse C57BL/6 spleen cells are obtained by isolation of the spleen of female mice from 8 to 12 weeks of age, according to protocols approved by the Animal and Human Research Ethics Committee of the Autonomous University of Barcelona. The spleens are disaggregated with the plunger of a syringe in […] in a laminar flow hood, removing the red blood cells with lysis buffer (Sigma-Aldrich). 5×10^5 cells are placed in the wells of 96 U-well plates, and incubated with 100 ng/mL of α-GalCer, OCH, or 1 μg/mL of the compounds 1a, 1b, 2b, 3a, 3b, and 4b in RPMI-1640 medium supplemented with 10% fetal calf serum (FCS) (Labclinics), 50 μM 2-mercaptoethanol, 2 mM L-glutamine and 1% methanol (non-toxic concentration for the cells), and grown at 37° C. in a 5% CO2 humidified atmosphere. 25 U/mL of recombinant human interleukin 2 are added at day 2 of culture.
The spleen cells cultures grown in the indicated conditions are analyzed by flow cytometry in a FACS Calibur (Beckton Dickinson Bioscience) for quantifying the levels of proliferation of the iNKTs after incubation with the compounds 1a, 1b, 2b, 3a, 3b, and 4b. The stimulated spleen cultures are washed and preincubated with 50 μl of staining medium (PBS with 2% FCS) with anti-CD16 (clone 2.4G2) for 20 min in ice. Subsequently the cells are washed and resuspended in staining medium with mouse anti-TCR antibody conjugated to fluorescein isothiocyanate (FITC) (clone H57-597, BD-Pharmingen) and anti-NK1.1 conjugated to avidin (clone PK-136, BD-Pharmingen) for 30 min in ice. […] The samples are analyzed in the flow cytometer (FACSCalibur) and the data are processed using the program CellQuest (BD Bioscience).

[2] = tested on: iNKT cells; experiment: Th1/Th2 deviation of the iNKT response (IFNγ versus IL-4 production); format: cell-based, mouse; conditions: for type of cytokine response (Th1/Th2 profile): IL-4 versus IFNγ induction in mouse spleen cell cultures; for IFNγ/IL-4 ratio: cytokines in mouse spleen cell culture supernatants (ELISA)
Description: (§2) The CD1d glycolipidic ligands induce a deviation in the production of cytokines by iNKT cells to Th1 or Th2, depending on its ability to be presented by CD1d, and its structural characteristics recognized by the TCR. For quantifying more precisely the immunostimulating ability of the compound 4b and determining if it induces a deviation in the iNKT response, its ability to induce the production of IFNγ and IL-4 is titrated in the cell cultures using different concentrations, and comparing the same with the two prototypical ligands, αGalCer and OCH (dissolved in MeOH), that have been described as inducers of a Th1 and Th2 response, respectively.
as §1
For the determinations of IL-4 and IFNγ, culture supernatants are taken at day 4 or day 7, and stored at −70° C. or used immediately in ELISA assays (eBioscience) for quantifying the cytokines, following the manufacturer's instructions. Standard curves are generated with the recombinant cytokines included in the kit. The statistical significance of the results is analyzed using a t-Student test, considering significant differences with p<0.01. The compounds 1a, 1b, 2b, 3a, 3b, and 4b are resuspended in 100% methanol or 100% dimethyl sulfoxide at a concentration of 1 mg/mL, and a 1/10 use dilution in PBS is prepared, with a final concentration of 100 μg/mL. The compounds are heated at 56° C. for 10-30 min and sonicated, before being diluted in complete growth medium, with a final concentration of 1% vehicle in the cellular assay.

[3] = tested on: IFNγ production by iNKT cells; experiment: IFNγ production in mouse spleen cell cultures, dose-response (ELISA); format: cell-based; conditions: dose-response (FIG. 3a)
Description: (§3) Quantifying of the production of IFNγ (FIG. 3A) and IL-4 (FIG. 3B) after the stimulation in vitro of cultures of mouse spleen cells containing lipidic agonists of iNKT cells in a dose-response assay.
as §2, §1
(§4) For the determinations of IL-4 and IFNγ, culture supernatants are taken at day 4 or day 7, and stored at −70° C. or used immediately in ELISA assays (eBioscience) for quantifying the cytokines, following the manufacturer's instructions. […] The statistical significance of the results is analyzed using a t-Student test, considering significant differences with p<0.01. […]

[4] = tested on: IL-4 production by iNKT cells; experiment: IL-4 production in mouse spleen cell cultures, dose-response (ELISA); format: cell-based; conditions: dose-response (FIG. 3b)
Description: as §3
as §2, with “respectively. […]” for “respectively.”
as §4

[5] = compound 1 μg/mL, 1% methanol, IL-2 at day 2, analysed day 5 or 6

Structure (SMILES): CCCCCCCCCCCCCCCCCCCCCCCCCC(=O)N[C@@H](CNC1[C@H](O)[C@H](O)C(O)[C@H](O)[C@H]1O)[C@H](O)[C@H](O)CCCCCCCCCCCCCC (some centres unmarked) [Compound 3a]
- expansion of iNKTs [1, 5]: approximately 2 times

Structure (SMILES): CCCCCCCCCCCCCC[C@@H](O)[C@@H](O)[C@H](CNC1[C@H](O)[C@H](O)C(O)[C@H](O)[C@H]1O)NC(=O)CCCCCCC (some centres unmarked) [Compound 3b]
- expansion of iNKTs [1, 5]: approximately 2 times

Structure (SMILES): CCCCCCCCCCCCCCCCCCCCCCCCCC(=O)N[C@@H](CN[C@H]1C[C@H](O)[C@@H](O)[C@H](O)[C@H]1O)[C@H](O)[C@H](O)CCCCCCCCCCCCCC [Compound 4b, (2S,3S,4R)-2-hexacosanamide-1-(1′S,2′S,3′R,4′R,5′S)-2,3,4,5,-tetrahydroxycyclohexylaminooctadecane-3,4-diol]
- type of cytokine response (Th1/Th2 profile) [2]: preferably Th2-type response
- IFNγ/IL-4 ratio [2]: 2
- response compared with the Th2 response prototype OCH ([2]; mouse spleen cell cultures, dose-response): lower response
- NKT cells as percentage of the T cells after incubation ([1]; compound 1 μg/mL, increase from 1.2% baseline, day 5 or 6 (FIG. 1)): 6.2%
- concentration at which production of IFNγ is induced [3]: 333 ng/mL
- concentration at which the maximal IFNγ response plateau is reached [3]: 1 µg/mL
- magnitude of the maximal IFNγ response compared with α-GalCer [3]: lower magnitude
- concentration at which induction of IL-4 is maintained with high efficiency [4]: 100 ng/mL
- concentration at which induction of IL-4 is still significant [4]: 33 ng/mL

Structure (SMILES): CCCCCCCCCCCCCCCCCCCCCCCCCC(=O)N[C@@H](CO[C@H]1O[C@H](CO)[C@H](O)[C@H](O)[C@H]1O)[C@H](O)[C@H](O)CCCCCCCCCCCCCC [αGalCer, α-galactosylceramide, reference compound]
- type of cytokine response (Th1/Th2 profile) [2]: high Th1 profile
- IFNγ/IL-4 ratio [2]: 10
- expansion of the population of NKT cells over the baseline conditions ([1]; αGalCer control (0.2 μg/mL per FIG. 1), 1% methanol, IL-2 at day 2, analysed day 5 or 6): more than 5 times
